From patent US6193992A, “Female sexual dysfunction treatment” (Pentech Pharmaceuticals, Inc., priority 1999, dated 2001)
Entries after “also recorded” stand apart in the source; their conditions may differ.

Experiments:
[1] = apomorphine hydrochloride studies reported in the literature; cited from earlier work
[2] = tested on: clitoral intracavernosal blood flow; assay: Effect of apomorphine on clitoral intracavernosal blood flow (laser Doppler flow) before and after pelvic nerve stimulation; format: in vivo, New Zealand White female rabbits; conditions: intravenous, female rabbits
Experimental: (§1) New Zealand White female rabbits (n=6, about 3.5-4 kg) were anesthetized with intravenous administration of pentobarbital. A 20 gauge angiocatheter was placed into the right carotid artery for measurement of systemic arterial pressure. A midline abdominal incision was made and the pelvic nerve branch to the vagina and clitoris was dissected. Nerve stimulation was performed with a Harvard subminiature electrode placed around the pelvic nerve branch to the vagina and clitoris and connected to a Grass SD-9 stimulator. Clitoral intracavernosal and vaginal wall blood flow were measured with a laser Doppler flow probe placed directly into the clitoral cavernosal tissue or into the vaginal wall and connected to a laser Doppler flowmeter.
(§2) Basal arterial blood pressure and clitoral and vaginal blood flow were each recorded before and then after stimulation of the pelvic nerve branch to the clitoris and vagina.

penile erection = conditions: cited from earlier work
[3] = tested on: vaginal and clitoral blood flow; assay: Optimum dose for vasculogenic effect on nerve stimulated vaginal and clitoral blood flow; format: in vivo, New Zealand White female rabbits; conditions: female rabbits
Experimental: as §1, §2

vaginal wall blood flow = assay: Effect of apomorphine on vaginal wall blood flow (laser Doppler flow) before and after pelvic nerve stimulation; format: in vivo, New Zealand White female rabbits; conditions: female rabbits
Experimental: as §1, §2

[4] = tested on: sexual readiness (clitoral erectogenesis and vaginal engorgement on sexual stimulation); assay: Extrapolation of rabbit optimum dose to human females (sexual readiness dose)
emesis = conditions: subcutaneous, about a 5-milligram dose; cited from earlier work
[5] = tested on: systemic arterial pressure; assay: Effect of apomorphine on systemic arterial pressure; format: in vivo, New Zealand White female rabbits; conditions: intravenous, female rabbits, FIG. 3
Experimental: as §1, §2

Compound: CN1CCc2cccc3c2[C@H]1Cc1ccc(O)c(O)c1-3 [apomorphine, Apomorphine]
- pharmacokinetics, females versus males [1]: the same for both females and males
- nerve stimulation-induced peak clitoral intracavernosal blood flow, concentration dependence ([2]; 0.05 mg/kg to 0.2 mg/kg, FIG. 1): concentration dependent increase
- nerve stimulation-induced peak clitoral intracavernosal blood flow, significance vs before apomorphine administration ([2]; 0.1 mg/kg, 0.2 mg/kg and 0.3 mg/kg, FIG. 1): statistically significant increase; also recorded: significant increase in nerve stimulation-induced peak clitoral intracavernosal blood flow
- effect on baseline clitoral intracavernosal blood flow ([2]; before nerve stimulation): did not affect baseline clitoral intracavernosal blood flow
- erectogenic effect in males (penile erection; males, research and clinical studies): erectogenic effect manifested by penile erection
- induction of erection on oral administration (penile erection; oral, psychogenic patient, U.S. Pat. No. 5,624,677 and Heaton et al.): can be used to induce an erection
- plasma concentration maintained for stimulation sufficient to cause an erection (penile erection; sublingual, patient): no more than 5.5 ng/ml
- optimum intravenous dosage for vasculogenic effect on nerve stimulated vaginal and clitoral blood flow ([3]; body weight): about 100 μg/kg
- optimal dose ([3]; intravenous): about 0.1 mg/kg
- effect on nerve stimulation-induced increase in vaginal wall blood flow (vaginal wall blood flow; 0.4 mg/kg): adverse effect
- nerve stimulation-induced peak vaginal wall blood flow, concentration dependence (vaginal wall blood flow; intravenous, 0.05 and 0.2 mg/kg, FIG. 2): concentration dependent increase
- nerve stimulation-induced peak vaginal wall blood flow, significance vs before apomorphine administration (vaginal wall blood flow; intravenous, 0.1 and 0.2 mg/kg, FIG. 2): statistically significant increase; also recorded: significant increase in vaginal wall blood flow
- effect on basal vaginal wall blood flow (vaginal wall blood flow; intravenous, before nerve stimulation): did not affect basal vaginal wall blood flow
- optimum dosage for human females ([4]; correlated from rabbit intravenous dosage (about 1/10)): ~10 µg/kg
- effective dose in a human female ([4]; correlated from rabbit intravenous dose (about 1/10)): about 0.01 mg/kg
- significant sexual readiness dose ([4]; sublingual tablet, women, about 70 kilograms): about 76 μg/kg
- significant sexual readiness dosage ([4]; sublingual, 70 kg weight woman): about 76 micrograms/kg
- emetic effect (emesis): emetic
- diastolic arterial pressure ([5]; increasing doses 0.05-0.4 mg/kg): concentration dependent moderate decrease
- systolic arterial pressure [5]: minimal effect
